Source: patent publication US11096952B2, “Chemicals and methods to prevent and treat TGF-beta mediated activation of fibroblasts to reduce and treat cancer and fibrosis” (Board of Supervisors of Louisiana State University and …, priority 2016, dated 2021)

How the values were obtained:
[1] = test system: TGF-β-induced fibronectin; test: High content imaging (Cellomics) screen for inhibitors of fibronectin induction by TGF-beta in WPMY-1 cells; type: cell-based, human; settings: WPMY-1, 0-100 uM, TGF-β 24 hour
Method: Inhibitors of CAF Differentiation. A. WPMY-1 cells were plated into each well of 4-chamber slice (for IF), or (C) in a 24 well plate (for western blot analysis). After cell attachment, vehicle or 5 ng/ml TGF-β was added into each well and incubated for 24 h in a 37° C. in a humidified incubator containing 5% CO2. For fluorescence detection (A), cells were fixed and stained with antibody detecting fibronectin and/or stained with DAPI to detect the nuclei. Protein was extracted with boiling Lamaelli buffer for WB (C) and blots were probed with anti-fibronectin or anti-tubulin antibodies. Fibronectin fluorescence (D and E) was measured in the presence or absence of TGF-β in 8 well replicates as follows. Cells were conditioned in serum-free DMEM for 48 hr prior to the addition of TGF-β. Images were acquired using a Cellomics platform with a mask shown in the schematic of (B). The mean of the total fluorescence intensity in each well was calculated from 300 cells per image field and up to 15 fields from each well for fibronectin. […]
FIGS. 4A-4H: Dose response for identified hits. As shown in the four panels of FIG. 4A, fibronectin fluorescence was measured from images acquired following a Cellomics scan using WPMY-1 cells with concentrations of hits over a range of 0-100 uM. […] Results were expressed as percent inhibition caused by cells treated with TGF-β alone and without testing compound, which was considered as 100%. […]
FIGS. 14-15 show Table I—Prestwick Library and Table II—NIH Library chemicals respectively. […] A “hit” was defined as a compound causing at least 50% reduction of “Mean_RingTotal Intensity”, which is the fluorescence intensity within the defined ring (see FIG. 2) surrounding nucleus of each cell, summed for 300 cells per image and 15 fields per image. The solvent, 0.1% Dimethyl Sulfoxide (DMSO), with and without TGF-beta served as an internal control on each plate to normalize day-to-day and plate-to-plate variation with DMSO alone as low fluorescence (0%) and TGF-β treated as maximal fluorescence (100%). […]

[2] = test system: TGF-β-induced fibronectin expression; test: Western blot of TGF-β-induced fibronectin expression in HPS-19 fibroblasts; type: cell-based, human; settings: HPS-19, 5 ng/ml TGF-β, digoxin 30, 60, 120, 240 nM, 24 hours
Excerpt: Representative blots are shown with two exposures of fibronectin to account for strong signal intensity. n=3.

WPMY-1 cells = test: Viability / metabolic activity assay on WPMY-1 cells
Method: Metabolically viable cells (indicated by bar; left y-axis) are indicated by fluorescent intensity (560/590 nm).
Cardiac glycosides have been shown previously to inhibit cell growth in a variety of cell types, in order to determine whether cardiac glycosides inhibited TGE-β-induced fibronectin expression by affecting metabolic activity, viability assays were performed on WPMY-1 cells over 48 hours in 1% FBS DMEM.

[3] = test system: activated fibroblast phenotype (fibronectin, YAP, TAZ, smooth muscle actin); test: Western blot of activated fibroblast markers (FN, YAP, TAZ, SMA) in MRC-5 lung fibroblasts induced by growth factors; type: cell-based, human
Method: FIG. 10C: MRC-5 lung fibroblast cells were serum-starved 24 hours then treated with 10 ng/mL TGF-β in serum-free media for 24 hours with or without verteporfin at the indicated concentration. FN: fibronectin, YAP: yes-activated protein, TAZ: transcriptional coactivator with PDZ-binding motif, and SMA(ACTA2): smooth muscle actin. Representative western blot is shown (n=3).
FIG. […] T.F.8: combination TGF, FGF, IL8. […] FN: fibronectin, YAP: yes-activated protein, TAZ: transcriptional coactivator with PDZ-binding motif, and SMA(ACTA2): smooth muscle actin. Representative western blot is shown (n=2).

[4] = test system: TGF-β-induced fibronectin; settings: MRC-5, 10 ng/mL TGF-β, 24 hours, low concentrations alone or in combination
Method: (§1) FIGS. 13A-13C: MRC-5 lung fibroblast cells were serum-starved 24 hours then treated with or without 10 ng/mL TGF-β for 24 hours (T-24 hr). […] FN: fibronectin, YAP: yes-activated protein, TAZ: transcriptional coactivator with PDZ-binding motif, and SMA(ACTA2): smooth muscle actin. Representative western blot is shown (n=2). […] Cells were fixed in −20C methanol for 15 minutes and immunolabeled for fibronectin. Cellomics arrayscan imaging was performed and staining intensity was quantified and analyzed for fibronectin expression on a per cell basis.
(§2) Turning now to FIGS. 13A-13E, in a clinical setting, it would be advantageous for the efficacy of the therapeutics that the activated fibroblasts be reversed to a quiescent state upon treatment. […] To test the combinations, the inventors obtained quantitative analysis of fibronectin staining in fibroblasts upon treatment with TGF-β in the presence or absence of drug combinations.

[5] = test system: activated fibroblast phenotype; settings: MRC-5 pre-activated with 10 ng/mL TGF-β 24 hours, then 24 hours treatment
Method: as §1, §2

## C[C@H]1O[C@@H](O[C@H]2[C@@H](O)C[C@H](O[C@H]3[C@@H](O)C[C@H](O[C@H]4CC[C@@]5(C)[C@H](CC[C@@H]6[C@@H]5C[C@@H](O)[C@]5(C)[C@@H](C7=CC(=O)OC7)CC[C@]65O)C4)O[C@@H]3C)O[C@@H]2C)C[C@H](O)[C@@H]1O [digoxin]
[1]
  IC50 / potency for inhibition of TGF-β-induced fibronectin (dose response): very low IC50
[2]
  TGF-β-induced fibronectin expression (western blot): prevents TGF-β-induced fibronectin expression in a dose dependent manner
WPMY-1 cells
  cell viability / metabolic activity: no effect on cell viability
[3]; MRC-5, 10 ng/mL TGF-β and 20 ng/ml FGF, 24 hours
  activated fibroblast phenotype induced by TGF-β and FGF (fibronectin, YAP, TAZ, smooth muscle actin): able to prevent the activated fibroblast phenotype
[3]; MRC-5, 10 ng/mL TGF-β and 20 ng/ml FGF, 24 hours, nintedanib 200 nM
  activated fibroblast phenotype upon TGF-β and FGF, compared with nintedanib: able to block the activated fibroblast phenotype better than nintedanib
[3]; MRC-5, 10 ng/mL TGF-β, 20 ng/mL FGF, 20 ng/mL IL-8, digoxin 250 nM, pyrvinium 500 nM vs pirfenidone 500 μm, nintedanib 250 nM
  fibroblast activation from a combination of growth factors (TGF, FGF, IL8): able to block fibroblast activation from a combination of growth factors better than pirfenidone or nintedanib
[3]; MRC-5, 10 ng/mL TGF-β, serum-free, 24 hours, dose escalation
  induction of fibronectin, YAP, TAZ, smooth muscle actin by TGF-β: block the induction of activated fibroblasts
[4]
  fibronectin staining intensity per cell (Cellomics arrayscan): the levels of fibronectin are reduced
[5]
  reversal of activated fibroblast phenotype (fibronectin, TAZ, smooth muscle actin): revert fibroblasts to the quiescent state
